Test results published in paper PMC5673977, “Transport Deficiency Is the Molecular Basis of Candida albicans Resistance to Antifungal Oligopeptides” (Frontiers in Microbiology, 2017).
Values after ≈ are worked out from the molar mass of the structure shown. Like-named read-outs stand apart in the source and are kept apart here. Where a SMILES comes first, the peptide text is derived from it.

Tests used:
Format in all cases: cell-based, Candida albicans
C. albicans opt1–opt5Δ [1] = assay: Initial peptide uptake rate; conditions: 50 mM potassium phosphate buffer (pH 5.0 or 6.5) + 1% glucose, 30°C, 100 μM peptide, TNBS A420, slope 0- to 10-min
Method: (§1) Yeast cells grown exponentially in the YNB-SG medium were harvested by centrifugation (3000 ×g, 5 min), washed with 50 mM potassium phosphate buffer (pH 5.0 or 6.5), and suspended in the same buffer containing 1% glucose, to a final cell density corresponding to A660 ≅ 1.0. The cell suspension was incubated at 30°C. After 10 min, an oligopeptide solution was added, to give a final concentration of 100 μM. At that moment and at 5 min intervals thereafter, 2 mL samples of the cell suspension were withdrawn, immediately filtered through the Whatman GF/A filters and the filtrates were used to determine the residual peptide concentration. Then, the 1 mL portions of the filtrates were taken and combined with 1.25 mL aliquots of a solution containing 4% Na2B4O7 × 10 H2O and 0.8 mg mL^-1 of 2,4,6-trinitrobenzenesulfonate. The reaction was carried out at 37°C for 30 min. The A420 values were measured and the peptide concentration was read from the appropriate standard curve. Data were plotted as nanomoles of an oligopeptide, taken up by 1 mg (dry weight) of cells versus time. The initial uptake velocities were determined from the slopes of the linear part of the curves, in the 0- to 10-min region.

C. albicans opt4Δ [2] = assay: Initial peptide uptake rate; conditions: 50 mM potassium phosphate buffer (pH 5.0 or 6.5) + 1% glucose, 30°C, 100 μM peptide, TNBS A420, slope 0- to 10-min
Method: as §1

C. albicans opt1Δ [3] = assay: Initial peptide uptake rate; conditions: 50 mM potassium phosphate buffer (pH 5.0 or 6.5) + 1% glucose, 30°C, 100 μM peptide, TNBS A420, slope 0- to 10-min
Method: as §1

C. albicans opt2Δ opt3Δ [4] = assay: Initial peptide uptake rate; conditions: 50 mM potassium phosphate buffer (pH 5.0 or 6.5) + 1% glucose, 30°C, 100 μM peptide, TNBS A420, slope 0- to 10-min
Method: as §1

[5] = tested on: C. albicans opt1–opt5Δ ptr2Δ ptr22Δ; assay: Initial peptide uptake rate; conditions: 50 mM potassium phosphate buffer (pH 5.0 or 6.5) + 1% glucose, 30°C, 100 μM peptide, TNBS A420, slope 0- to 10-min
Method: as §1

C. albicans ptr2Δ ptr22Δ [6] = assay: Initial peptide uptake rate; conditions: 50 mM potassium phosphate buffer (pH 5.0 or 6.5) + 1% glucose, 30°C, 100 μM peptide, TNBS A420, slope 0- to 10-min
Method: as §1

C. albicans SC5314 [7] = assay: Initial peptide uptake rate; conditions: SC 5314; cells grown in YNB-SG; 50 mM potassium phosphate buffer (pH 5.0 or 6.5) + 1% glucose, 30°C, 100 μM peptide, residual peptide by TNBS A420, slope 0- to 10-min
Method: as §1

C. albicans opt5Δ [8] = assay: Initial peptide uptake rate; conditions: 50 mM potassium phosphate buffer (pH 5.0 or 6.5) + 1% glucose, 30°C, 100 μM peptide, TNBS A420, slope 0- to 10-min
Method: as §1

C. albicans opt1–opt5Δ [9] = conditions: turbidity 531 nm, at least 80% decrease
Method: (§2) Strains were grown at 30°C in YPD medium (1% yeast extract, 2% peptone, and 2% glucose) and stored on YPD plates containing 2% agar. Susceptibility testing was performed in YPD and other three media: (a) RPMI-1640 w/o sodium bicarbonate, with L-glutamine + 2% glucose + 3.45% MOPS, pH adjusted to 7.0; (b) YNB-AS—Yeast Nitrogen Base w/o amino acids (contains ammonium sulfate 5 g L^-1) + 2% glucose; (c) YNB-SG—Yeast Nitrogen Base w/o amino acids and ammonium sulfate + 2% glucose + 0.2 g L^-1 sodium glutamate. In their solid version, used for the mutant generation and isolation, YNB-AS and YNB-SG contained 2% agar.
(§3) The in vitro growth inhibitory activity of antifungals was quantified by determination of minimal inhibitory concentration (MIC) values by the serial twofold dilution method, using the 96-well microtiter plates in three media: buffered RPMI-1640, YNB-AS, and YNB-SG. Conditions of the RPMI-1640-based assay were the same as outlined in the CLSI recommendations ([Clinical Laboratory Standards Institute, 2008]), except for the end-point readout that was done by spectrophotometric determination of cell density at 531 nm. Turbidity in individual wells was measured with a microplate reader (Victor^3; Perkin Elmer). MIC was defined as the lowest drug concentration that gave at least an 80% decrease in turbidity, relative to that of the drug-free growth control.
(§4) The 96-well microtiter plates were also used for determination of in vitro growth inhibitory activity in YPD and YNB-based media. Individual wells were inoculated with 5 × 10^3 cfu mL^-1 of C. albicans cells from the overnight culture in YPD medium. The inoculated plates were incubated 37°C for 24 h and then turbidity was measured with a microplate reader at 531 nm, as described above for the RPMI-1640-based assay.

C. albicans opt4Δ [10] = conditions: turbidity 531 nm, at least 80% decrease
Method: as §2, §3, §4

C. albicans opt1Δ [11] = conditions: turbidity 531 nm, at least 80% decrease
Method: as §2, §3, §4

C. albicans opt2Δ opt3Δ [12] = conditions: turbidity 531 nm, at least 80% decrease
Method: as §2, §3, §4

[13] = tested on: C. albicans opt1–opt5Δ ptr2Δ ptr22Δ; conditions: turbidity 531 nm, at least 80% decrease
Method: as §2, §3, §4

C. albicans ptr2Δ ptr22Δ [14] = conditions: turbidity 531 nm, at least 80% decrease
Method: as §2, §3, §4

C. albicans SC5314 [15] = conditions: SC 5314
Method: as §2, §3, §4

C. albicans opt5Δ [16] = conditions: turbidity 531 nm, at least 80% decrease
Method: as §2, §3, §4

[17] = RPMI-1640 medium, MOPS pH 7.0, CLSI conditions

SMILES: CSCC[C@H](NC(=O)[C@@H](NC(=O)[C@@H]1CCCN1C(=O)[C@H](CC(C)C)NC(=O)[C@@H](N)CCCCN)C(C)C)C(=O)O [Peptide P5, Lys-Leu-Pro-Val-Met, reference compound] (H-KLPVM-OH)
- Uptake rate ± SD (C. albicans opt1–opt5Δ [1]): 0.39 ± 0.07 nmol min^-1 (mg dry weight)^-1
- Uptake rate ± SD (C. albicans opt4Δ [2]): 1.95 ± 0.13 nmol min^-1 (mg dry weight)^-1
- Uptake rate ± SD (C. albicans opt1Δ [3]): 2.01 ± 0.16 nmol min^-1 (mg dry weight)^-1
- Uptake rate ± SD (C. albicans opt2Δ opt3Δ [4]): 0.52 ± 0.08 nmol min^-1 (mg dry weight)^-1
- Uptake rate ± SD [5]: 0.15 ± 0.04 nmol min^-1 (mg dry weight)^-1
- Uptake rate ± SD (C. albicans ptr2Δ ptr22Δ [6]): 2.56 ± 0.18 nmol min^-1 (mg dry weight)^-1
- Uptake rate ± SD (C. albicans SC5314 [7]): 2.66 ± 0.19 nmol min^-1 (mg dry weight)^-1
- Uptake rate ± SD (C. albicans opt5Δ [8]): 1.82 ± 0.11 nmol min^-1 (mg dry weight)^-1

SMILES: N=C(N)NCCC[C@H](N)C(=O)N[C@@H](CCCCN)C(=O)N[C@@H](CCCCN)C(=O)N[C@@H](Cc1c[nH]c2ccccc12)C(=O)N[C@@H](Cc1ccccc1)C(=O)N[C@@H](Cc1c[nH]c2ccccc12)C(=O)O [Peptide P6, Arg-Lys-Lys-Trp-Phe-Trp, reference compound] (H-RKKWFW-OH)
- Uptake rate ± SD (C. albicans opt1–opt5Δ [1]): 0.22 ± 0.07 nmol min^-1 (mg dry weight)^-1
- Uptake rate ± SD (C. albicans opt4Δ [2]): 2.11 ± 0.16 nmol min^-1 (mg dry weight)^-1
- Uptake rate ± SD (C. albicans opt1Δ [3]): 1.85 ± 0.15 nmol min^-1 (mg dry weight)^-1
- Uptake rate ± SD (C. albicans opt2Δ opt3Δ [4]): 0.40 ± 0.09 nmol min^-1 (mg dry weight)^-1
- Uptake rate ± SD [5]: 0.12 ± 0.03 nmol min^-1 (mg dry weight)^-1
- Uptake rate ± SD (C. albicans ptr2Δ ptr22Δ [6]): 2.46 ± 0.19 nmol min^-1 (mg dry weight)^-1
- Uptake rate ± SD (C. albicans SC5314 [7]): 2.22 ± 0.11 nmol min^-1 (mg dry weight)^-1
- Uptake rate ± SD (C. albicans opt5Δ [8]): 1.99 ± 0.10 nmol min^-1 (mg dry weight)^-1

SMILES: CC(C)[C@H](NC(=O)[C@H](Cc1c[nH]c2ccccc12)NC(=O)[C@H](Cc1ccccc1)NC(=O)[C@@H](NC(=O)[C@@H](NC(=O)[C@H](CCCCN)NC(=O)[C@@H](N)CCCCN)C(C)C)C(C)C)C(=O)N[C@@H](CCCCN)C(=O)N[C@@H](Cc1ccccc1)C(=O)N[C@@H](CCCCN)C(=O)O [Peptide P10, Lys-Lys-Val-Val-Phe-Trp-Val-Lys-Phe-Lys] (H-KKVVFWVKFK-OH)
- MIC (C. albicans opt1–opt5Δ [9]; [17]): 64 µg/mL (≈ 48.9 µM)
- MIC (C. albicans opt1–opt5Δ [9]; YNB-AS medium, 37°C, 24 h): 64 µg/mL (≈ 48.9 µM)
- MIC (C. albicans opt1–opt5Δ [9]; YNB-SG medium, 37°C, 24 h): 64 µg/mL (≈ 48.9 µM)
- MIC (C. albicans opt4Δ [10]; [17]): 64 µg/mL (≈ 48.9 µM)
- MIC (C. albicans opt4Δ [10]; YNB-AS medium, 37°C, 24 h): 64 µg/mL (≈ 48.9 µM)
- MIC (C. albicans opt4Δ [10]; YNB-SG medium, 37°C, 24 h): 64 µg/mL (≈ 48.9 µM)
- MIC (C. albicans opt1Δ [11]; [17]): 64 µg/mL (≈ 48.9 µM)
- MIC (C. albicans opt1Δ [11]; YNB-AS medium, 37°C, 24 h): 64 µg/mL (≈ 48.9 µM)
- MIC (C. albicans opt1Δ [11]; YNB-SG medium, 37°C, 24 h): 64 µg/mL (≈ 48.9 µM)
- MIC (C. albicans opt2Δ opt3Δ [12]; [17]): 64 µg/mL (≈ 48.9 µM)
- MIC (C. albicans opt2Δ opt3Δ [12]; YNB-AS medium, 37°C, 24 h): 64 µg/mL (≈ 48.9 µM)
- MIC (C. albicans opt2Δ opt3Δ [12]; YNB-SG medium, 37°C, 24 h): 64 µg/mL (≈ 48.9 µM)
- MIC [13, 17]: 64 µg/mL (≈ 48.9 µM)
- MIC ([13]; YNB-AS medium, 37°C, 24 h): 64 µg/mL (≈ 48.9 µM)
- MIC ([13]; YNB-SG medium, 37°C, 24 h): 64 µg/mL (≈ 48.9 µM)
- MIC (C. albicans ptr2Δ ptr22Δ [14]; [17]): 64 µg/mL (≈ 48.9 µM)
- MIC (C. albicans ptr2Δ ptr22Δ [14]; YNB-AS medium, 37°C, 24 h): 64 µg/mL (≈ 48.9 µM)
- MIC (C. albicans ptr2Δ ptr22Δ [14]; YNB-SG medium, 37°C, 24 h): 64 µg/mL (≈ 48.9 µM)
- MIC (C. albicans SC5314 [15]; RPMI-1640 medium, MOPS pH 7.0, CLSI conditions, turbidity 531 nm, at least 80% decrease): 64 µg/mL (≈ 48.9 µM)
- MIC (C. albicans SC5314 [15]; YNB + L-Gln (0.3 g L^-1) pH 5.0): 64 µg/mL
- MIC (C. albicans SC5314 [15]; YNB + L-Gln (0.3 g L^-1) pH 7.0): 64 µg/mL
- MIC (C. albicans SC5314 [15]; YNB + amino acid mixture (composition as in RPMI-1640)): 64 µg/mL
- MIC (C. albicans SC5314 [15]; YNB-AS medium, 5 × 10^3 cfu mL^-1, 37°C, 24 h, turbidity 531 nm, at least 80% decrease): 64 µg/mL (≈ 48.9 µM)
- MIC (C. albicans SC5314 [15]; YNB-SG medium, 5 × 10^3 cfu mL^-1, 37°C, 24 h, turbidity 531 nm, at least 80% decrease): 64 µg/mL (≈ 48.9 µM)
- MIC (C. albicans SC5314 [15]; growth medium YNB-SG (Table 6)): 64 µg/mL (≈ 48.9 µM)
- MIC (C. albicans opt5Δ [16]; [17]): 64 µg/mL (≈ 48.9 µM)
- MIC (C. albicans opt5Δ [16]; YNB-AS medium, 37°C, 24 h): 64 µg/mL (≈ 48.9 µM)
- MIC (C. albicans opt5Δ [16]; YNB-SG medium, 37°C, 24 h): 64 µg/mL (≈ 48.9 µM)
- Uptake rate ± SD (C. albicans opt1–opt5Δ [1]): <0.1 nmol min^-1 (mg dry weight)^-1
- Uptake rate ± SD (C. albicans opt4Δ [2]): <0.1 nmol min^-1 (mg dry weight)^-1
- Uptake rate ± SD (C. albicans opt1Δ [3]): <0.1 nmol min^-1 (mg dry weight)^-1
- Uptake rate ± SD (C. albicans opt2Δ opt3Δ [4]): <0.1 nmol min^-1 (mg dry weight)^-1
- Uptake rate ± SD [5]: <0.1 nmol min^-1 (mg dry weight)^-1
- Uptake rate ± SD (C. albicans ptr2Δ ptr22Δ [6]): <0.1 nmol min^-1 (mg dry weight)^-1
- Uptake rate ± SD (C. albicans SC5314 [7]): <0.1 nmol min^-1 (mg dry weight)^-1
- Uptake rate ± SD (C. albicans opt5Δ [8]): <0.1 nmol min^-1 (mg dry weight)^-1
